In patent US11285218B2, “Degradation of bromodomain-containing protein 9 (BRD9) by conjugation of BRD9 inhibitors with E3 ligase ligand and methods of use” (Dana-Farber Cancer Institute, Inc., priority 2016, dated 2022):
Entries after “also recorded” stand apart in the source; their conditions may differ.

Columns and labels:
BRD3(1) = molecular target: T1, BRD3(1) (Homo sapiens, UniProt Q15059); test: BromoScan single-point screen; format: binding; settings: percent of protein captured on solid support vs control
T1 construct: utilizing DNA-tagged bromodomain and immobilized ligand attached to solid support
Description: (§1) The BromoScan is an assay that measures the engagement of compounds with bromodomain proteins by utilizing DNA-tagged bromodomain and immobilized ligand attached to solid support. In the control test, DNA-tagged bromodomain binds to the ligand and the bromodomain is captured on the solid support. Compounds that compete for the bromodomain binding location on the ligand will prevent the bromodomain from binding, resulting in less protein captured on the solid support.

BRDT(2) = molecular target: T2, BRDT(2) (Homo sapiens, UniProt Q58F21); test: BromoScan single-point screen; format: binding; settings: percent of protein captured on solid support vs control
T2 construct: utilizing DNA-tagged bromodomain and immobilized ligand attached to solid support
Description: as §1

WDR9(2) = molecular target: T3, WDR9(2) (Homo sapiens, UniProt Q9NSI6); test: BromoScan single-point screen; format: binding; settings: percent of protein captured on solid support vs control
T3 construct: utilizing DNA-tagged bromodomain and immobilized ligand attached to solid support
Description: as §1

PCAF = molecular target: T4, PCAF (Homo sapiens, UniProt Q92831); test: BromoScan single-point screen; format: binding; settings: percent of protein captured on solid support vs control
T4 construct: utilizing DNA-tagged bromodomain and immobilized ligand attached to solid support
Description: as §1

CECR2 = molecular target: T5, CECR2 (Homo sapiens, UniProt Q9BXF3); test: BromoScan single-point screen; format: binding; settings: percent of protein captured on solid support vs control
T5 construct: utilizing DNA-tagged bromodomain and immobilized ligand attached to solid support
Description: as §1

BRPF1 = molecular target: T6, BRPF1 (Homo sapiens, UniProt P55201); test: BromoScan single-point screen; format: binding; settings: percent of protein captured on solid support vs control
T6 construct: utilizing DNA-tagged bromodomain and immobilized ligand attached to solid support
Description: as §1

BRD7 [1] = molecular target: T7, BRD7 (Homo sapiens, UniProt Q9NPI1); test: BromoScan single-point screen; format: binding; settings: percent of protein captured on solid support vs control
T7 construct: utilizing DNA-tagged bromodomain and immobilized ligand attached to solid support
Description: as §1
T7 sequence (Q9NPI1 131-235 limits assumed): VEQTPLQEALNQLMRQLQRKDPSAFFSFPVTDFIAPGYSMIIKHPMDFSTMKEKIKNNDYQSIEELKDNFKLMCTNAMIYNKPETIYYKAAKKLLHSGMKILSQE

BRD2(1) = molecular target: T8, BRD2(1) (Homo sapiens, UniProt P25440); test: BromoScan single-point screen; format: binding; settings: percent of protein captured on solid support vs control
T8 construct: utilizing DNA-tagged bromodomain and immobilized ligand attached to solid support
Description: as §1

BAZ^2A = molecular target: T9, BAZ^2A (Homo sapiens, UniProt Q9UIF9); test: BromoScan single-point screen; format: binding; settings: percent of protein captured on solid support vs control
T9 construct: utilizing DNA-tagged bromodomain and immobilized ligand attached to solid support
Description: as §1

BRPF3 = molecular target: T10, BRPF3 (Homo sapiens, UniProt Q9ULD4); test: BromoScan single-point screen; format: binding; settings: percent of protein captured on solid support vs control
T10 construct: utilizing DNA-tagged bromodomain and immobilized ligand attached to solid support
Description: as §1

SMARCA2 = molecular target: T11, SMARCA2 (Homo sapiens, UniProt P51531); test: BromoScan single-point screen; format: binding; settings: percent of protein captured on solid support vs control
T11 construct: utilizing DNA-tagged bromodomain and immobilized ligand attached to solid support
Description: as §1

BRD3(2) = molecular target: T12, BRD3(2) (Homo sapiens, UniProt Q15059); test: BromoScan single-point screen; format: binding; settings: percent of protein captured on solid support vs control
T12 construct: utilizing DNA-tagged bromodomain and immobilized ligand attached to solid support
Description: as §1

PBRM1(5) = molecular target: T13, PBRM1(5) (Homo sapiens, UniProt Q86U86); test: BromoScan single-point screen; format: binding; settings: percent of protein captured on solid support vs control
T13 construct: utilizing DNA-tagged bromodomain and immobilized ligand attached to solid support
Description: as §1

FALZ = molecular target: T14, FALZ (Homo sapiens, UniProt Q12830); test: BromoScan single-point screen; format: binding; settings: percent of protein captured on solid support vs control
T14 construct: utilizing DNA-tagged bromodomain and immobilized ligand attached to solid support
Description: as §1

TRIM24 (PHD, Bromo.) = molecular target: T15, TRIM24 (PHD, Bromo.) (Homo sapiens, UniProt O15164); test: BromoScan single-point screen; format: binding; settings: percent of protein captured on solid support vs control
T15 construct: utilizing DNA-tagged bromodomain and immobilized ligand attached to solid support
Description: as §1

CREBBP = molecular target: T16, CREBBP (Homo sapiens, UniProt Q92793); test: BromoScan single-point screen; format: binding; settings: percent of protein captured on solid support vs control
T16 construct: utilizing DNA-tagged bromodomain and immobilized ligand attached to solid support
Description: as §1

BRD2(2) = molecular target: T17, BRD2(2) (Homo sapiens, UniProt P25440); test: BromoScan single-point screen; format: binding; settings: percent of protein captured on solid support vs control
T17 construct: utilizing DNA-tagged bromodomain and immobilized ligand attached to solid support
Description: as §1

BRD1 = molecular target: T18, BRD1 (Homo sapiens, UniProt O95696); test: BromoScan single-point screen; format: binding; settings: percent of protein captured on solid support vs control
T18 construct: utilizing DNA-tagged bromodomain and immobilized ligand attached to solid support
Description: as §1

TAF1(2) = molecular target: T19, TAF1(2) (Homo sapiens, UniProt P21675); test: BromoScan single-point screen; format: binding; settings: percent of protein captured on solid support vs control
T19 construct: utilizing DNA-tagged bromodomain and immobilized ligand attached to solid support
Description: as §1

GCN5L2 = molecular target: T20, GCN5L2 (Homo sapiens, UniProt Q92830); test: BromoScan single-point screen; format: binding; settings: percent of protein captured on solid support vs control
T20 construct: utilizing DNA-tagged bromodomain and immobilized ligand attached to solid support
Description: as §1

PBRM1(2) = molecular target: T21, PBRM1(2) (Homo sapiens, UniProt Q86U86); test: BromoScan single-point screen; format: binding; settings: percent of protein captured on solid support vs control
T21 construct: utilizing DNA-tagged bromodomain and immobilized ligand attached to solid support
Description: as §1

BAZ^2B = molecular target: T22, BAZ^2B (Homo sapiens, UniProt Q9UIF8); test: BromoScan single-point screen; format: binding; settings: percent of protein captured on solid support vs control
T22 construct: utilizing DNA-tagged bromodomain and immobilized ligand attached to solid support
Description: as §1

SMARCA4 = molecular target: T23, SMARCA4 (Homo sapiens, UniProt P51532); test: BromoScan single-point screen; format: binding; settings: percent of protein captured on solid support vs control
T23 construct: utilizing DNA-tagged bromodomain and immobilized ligand attached to solid support
Description: as §1

EP300 = molecular target: T24, EP300 (Homo sapiens, UniProt Q09472); test: BromoScan single-point screen; format: binding; settings: percent of protein captured on solid support vs control
T24 construct: utilizing DNA-tagged bromodomain and immobilized ligand attached to solid support
Description: as §1

TAF1L(2) = molecular target: T25, TAF1L(2) (Homo sapiens, UniProt Q8IZX4); test: BromoScan single-point screen; format: binding; settings: percent of protein captured on solid support vs control
T25 construct: utilizing DNA-tagged bromodomain and immobilized ligand attached to solid support
Description: as §1

BRDT(1) = molecular target: T26, BRDT(1) (Homo sapiens, UniProt Q58F21); test: BromoScan single-point screen; format: binding; settings: percent of protein captured on solid support vs control
T26 construct: utilizing DNA-tagged bromodomain and immobilized ligand attached to solid support
Description: as §1

ATAD2A = molecular target: T27, ATAD2A (Homo sapiens, UniProt Q6PL18); test: BromoScan single-point screen; format: binding; settings: percent of protein captured on solid support vs control
T27 construct: utilizing DNA-tagged bromodomain and immobilized ligand attached to solid support
Description: as §1

ATAD2B = molecular target: T28, ATAD2B (Homo sapiens, UniProt Q9ULI0); test: BromoScan single-point screen; format: binding; settings: percent of protein captured on solid support vs control
T28 construct: utilizing DNA-tagged bromodomain and immobilized ligand attached to solid support
Description: as §1

BRD7 [2] = molecular target: BRD7 (Homo sapiens, UniProt Q9NPI1); test: BRD7 immunoblot in MOLM-13; settings: MOLM-13, 4 hour treatment
Target sequence in this assay (Q9NPI1 whole entry): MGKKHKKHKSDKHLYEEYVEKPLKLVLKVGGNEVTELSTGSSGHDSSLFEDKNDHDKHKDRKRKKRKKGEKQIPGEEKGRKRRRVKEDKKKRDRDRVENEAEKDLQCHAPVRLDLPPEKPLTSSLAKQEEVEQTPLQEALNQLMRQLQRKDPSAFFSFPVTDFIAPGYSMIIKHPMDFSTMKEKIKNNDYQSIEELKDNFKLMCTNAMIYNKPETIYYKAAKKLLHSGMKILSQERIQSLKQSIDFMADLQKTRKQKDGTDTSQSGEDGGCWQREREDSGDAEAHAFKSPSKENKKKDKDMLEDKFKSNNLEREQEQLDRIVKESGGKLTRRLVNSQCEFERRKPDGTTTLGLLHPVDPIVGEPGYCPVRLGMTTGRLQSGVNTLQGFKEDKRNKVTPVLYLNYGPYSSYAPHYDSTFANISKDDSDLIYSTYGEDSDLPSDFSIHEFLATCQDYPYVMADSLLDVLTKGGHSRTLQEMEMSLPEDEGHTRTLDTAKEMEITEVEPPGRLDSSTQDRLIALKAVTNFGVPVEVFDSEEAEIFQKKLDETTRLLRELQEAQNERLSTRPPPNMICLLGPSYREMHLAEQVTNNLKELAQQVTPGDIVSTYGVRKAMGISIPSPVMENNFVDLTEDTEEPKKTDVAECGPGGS
Description: In additional experiments, cells were washed with PBS, before being lysed in RIPA buffer supplemented with 1×HALT™ protease inhibitor cocktail (Thermo Scientific) for 10 min on ice, followed by low-amplitude sonication for 10 seconds at 4° C. […] In soluble material was removed by centrifugation at 20,000×g for 20 min before protein content was quantified by BCA assay (Pierce). […] Blots were imaged using fluorescence-labeled secondary antibodies (LI-COR) on the OdysseyCLxImager (LI-COR).

[3] = system: 32 members of the human bromodomain family; test: BromoScan single-point screen, panel profile; format: binding; settings: single-point 1 μM, 32 bromodomains; in words
Description: as §1

[4] = system: MM.1S multiple myeloma line; test: ATPlite viability assay, MM.1S; settings: 72 hour treatment, in words
Description: 500 cells/well were plated at a volume of 40 μL/well in white tissue culture treated 384 well assay plates (Thermo Scientific) before DMSO compound stock was added from pre-diluted plates by pin transfer using a Janus Workstation (PerkinElmer, USA). […] Assay plates were allowed to equilibrate to RT for 30 min before reconstituted ATPlite 1 Step reagent (Perkin Elmer) was dispensed at 1:1 volume/well by EL406 automated liquid handler (Biotek, USA).

TRIM33 (PHD, Bromo.) = test: BromoScan single-point screen; format: binding, human; settings: percent of protein captured on solid support vs control
Description: as §1

T3 sequence (Q9NSI6 1313-1418 limits assumed): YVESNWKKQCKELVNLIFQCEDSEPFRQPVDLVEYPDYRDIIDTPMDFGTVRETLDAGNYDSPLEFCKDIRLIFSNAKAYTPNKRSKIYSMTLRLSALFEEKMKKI
T21 sequence (Q86U86 177-287 limits assumed): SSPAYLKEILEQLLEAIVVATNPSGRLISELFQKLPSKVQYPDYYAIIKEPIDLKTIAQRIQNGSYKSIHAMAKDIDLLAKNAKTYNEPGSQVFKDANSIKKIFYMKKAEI
T8 sequence (P25440 74-180 limits assumed): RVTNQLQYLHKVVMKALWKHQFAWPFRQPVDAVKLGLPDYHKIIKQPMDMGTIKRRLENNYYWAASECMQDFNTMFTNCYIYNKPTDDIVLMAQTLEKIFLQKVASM
T12 sequence (Q15059 306-415 limits assumed): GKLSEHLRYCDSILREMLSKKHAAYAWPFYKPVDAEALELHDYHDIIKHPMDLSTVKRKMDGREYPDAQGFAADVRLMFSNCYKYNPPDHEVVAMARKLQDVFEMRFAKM
T27 sequence (Q6PL18 980-1092 limits assumed): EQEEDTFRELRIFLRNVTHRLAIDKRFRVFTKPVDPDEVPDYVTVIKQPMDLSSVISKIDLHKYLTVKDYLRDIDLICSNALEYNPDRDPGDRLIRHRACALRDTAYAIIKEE
T4 sequence (Q92831 723-827 limits assumed): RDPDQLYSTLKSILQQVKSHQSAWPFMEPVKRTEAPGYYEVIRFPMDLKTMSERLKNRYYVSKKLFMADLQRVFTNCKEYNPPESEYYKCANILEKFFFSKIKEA
T17 sequence (P25440 344-453 limits assumed): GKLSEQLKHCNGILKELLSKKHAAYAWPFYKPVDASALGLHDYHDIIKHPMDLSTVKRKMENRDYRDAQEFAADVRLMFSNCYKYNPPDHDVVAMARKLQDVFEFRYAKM
T25 sequence (Q8IZX4 1517-1626 limits assumed): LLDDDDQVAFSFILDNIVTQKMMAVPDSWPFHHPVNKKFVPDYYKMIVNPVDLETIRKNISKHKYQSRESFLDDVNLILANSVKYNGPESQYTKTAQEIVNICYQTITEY
T18 sequence (O95696 562-666 limits assumed): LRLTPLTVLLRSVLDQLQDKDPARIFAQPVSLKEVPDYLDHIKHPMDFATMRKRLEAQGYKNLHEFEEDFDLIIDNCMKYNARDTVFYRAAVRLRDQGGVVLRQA
T19 sequence (P21675 1519-1628 limits assumed): as the sequence (Q8IZX4 1517-1626 limits assumed) above, with M46V, V51M, I102V, I107L counted along it
T20 sequence (Q92830 728-832 limits assumed): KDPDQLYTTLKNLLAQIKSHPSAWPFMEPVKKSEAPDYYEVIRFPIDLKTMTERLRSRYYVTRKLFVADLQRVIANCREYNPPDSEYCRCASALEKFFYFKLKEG
T6 sequence (P55201 628-732 limits assumed): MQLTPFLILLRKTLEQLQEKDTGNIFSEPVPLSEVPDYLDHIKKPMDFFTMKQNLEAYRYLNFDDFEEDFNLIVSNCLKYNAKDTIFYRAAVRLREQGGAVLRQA
T22 sequence (Q9UIF8 2060-2164 limits assumed): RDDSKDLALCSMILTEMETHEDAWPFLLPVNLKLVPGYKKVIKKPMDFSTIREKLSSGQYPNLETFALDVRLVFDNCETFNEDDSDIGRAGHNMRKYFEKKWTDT
T13 sequence (Q86U86 653-763 limits assumed): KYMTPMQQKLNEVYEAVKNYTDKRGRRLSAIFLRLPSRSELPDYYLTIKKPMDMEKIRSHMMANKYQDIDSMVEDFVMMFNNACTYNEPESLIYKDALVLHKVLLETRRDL
T28 sequence (Q9ULI0 951-1066 limits assumed): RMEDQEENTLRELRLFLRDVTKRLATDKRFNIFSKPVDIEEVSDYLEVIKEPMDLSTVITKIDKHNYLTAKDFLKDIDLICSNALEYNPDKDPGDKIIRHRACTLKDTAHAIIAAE
T1 sequence (Q15059 34-140 limits assumed): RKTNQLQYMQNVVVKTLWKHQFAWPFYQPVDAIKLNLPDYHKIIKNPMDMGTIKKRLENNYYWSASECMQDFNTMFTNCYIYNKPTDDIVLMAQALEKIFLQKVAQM
T16 sequence (Q92793 1085-1192 limits assumed): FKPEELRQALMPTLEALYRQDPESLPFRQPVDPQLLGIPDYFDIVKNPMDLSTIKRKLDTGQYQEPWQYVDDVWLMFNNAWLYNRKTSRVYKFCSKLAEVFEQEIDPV
T23 sequence (P51532 1453-1564 limits assumed): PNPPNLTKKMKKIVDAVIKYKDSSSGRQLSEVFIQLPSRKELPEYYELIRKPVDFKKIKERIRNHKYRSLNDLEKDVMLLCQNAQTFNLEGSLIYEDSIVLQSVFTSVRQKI
T15 sequence (O15164 824-1006 limits assumed): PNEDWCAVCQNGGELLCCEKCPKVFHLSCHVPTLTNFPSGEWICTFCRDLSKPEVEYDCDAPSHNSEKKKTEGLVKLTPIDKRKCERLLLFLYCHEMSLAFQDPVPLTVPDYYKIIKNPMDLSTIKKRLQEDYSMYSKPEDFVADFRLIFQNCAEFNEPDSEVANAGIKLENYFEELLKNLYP
T10 sequence (Q9ULD4 589-693 limits assumed): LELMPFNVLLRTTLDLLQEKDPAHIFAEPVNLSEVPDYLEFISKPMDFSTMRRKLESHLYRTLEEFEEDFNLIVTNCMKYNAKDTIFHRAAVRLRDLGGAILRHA
T24 sequence (Q09472 1049-1156 limits assumed): as the sequence (Q92793 1085-1192 limits assumed) above, with N47S, V73I, F93Y, A98S counted along it
T11 sequence (P51531 1378-1506 limits assumed): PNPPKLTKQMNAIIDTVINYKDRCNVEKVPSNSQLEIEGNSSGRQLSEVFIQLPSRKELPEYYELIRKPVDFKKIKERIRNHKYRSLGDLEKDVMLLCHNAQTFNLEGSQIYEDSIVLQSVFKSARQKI
T5 sequence (Q9BXF3 434-538 limits assumed): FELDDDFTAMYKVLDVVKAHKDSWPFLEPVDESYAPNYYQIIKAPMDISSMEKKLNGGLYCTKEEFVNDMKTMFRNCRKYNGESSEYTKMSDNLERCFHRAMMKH
T9 sequence (Q9UIF9 1793-1897 limits assumed): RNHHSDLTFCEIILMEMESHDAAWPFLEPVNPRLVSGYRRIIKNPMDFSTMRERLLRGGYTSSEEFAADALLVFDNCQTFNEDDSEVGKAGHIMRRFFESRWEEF

COc1cc(-c2cn(C)c(=O)c3cnccc23)cc(OC)c1CN(C)CC(=O)NCCOCCOCCNc1cccc2c1C(=O)N(C1CCC(=O)NC1=O)C2=O (centres unmarked) [Compound I-25]
% Ctrl @ 1 μM (BRD3(1)): 87 % Ctrl
% Ctrl @ 1 μM (BRDT(2)): 83 % Ctrl
% Ctrl @ 1 μM (WDR9(2)): 86 % Ctrl
% Ctrl @ 1 μM (PCAF): 67 % Ctrl
% Ctrl @ 1 μM (CECR2): 14 % Ctrl
% Ctrl @ 1 μM (BRPF1): 75 % Ctrl
% Ctrl @ 1 μM (BRD7 [1]): 25 % Ctrl
% Ctrl @ 1 μM (BRD2(1)): 81 % Ctrl
% Ctrl @ 1 μM (BAZ^2A): 62 % Ctrl
% Ctrl @ 1 μM (BRPF3): 86 % Ctrl
% Ctrl @ 1 μM (SMARCA2): 70 % Ctrl
% Ctrl @ 1 μM (BRD3(2)): 85 % Ctrl
% Ctrl @ 1 μM (PBRM1(5)): 89 % Ctrl
% Ctrl @ 1 μM (FALZ): 79 % Ctrl
% Ctrl @ 1 μM (TRIM24 (PHD, Bromo.)): 98 % Ctrl
% Ctrl @ 1 μM (CREBBP): 88 % Ctrl
% Ctrl @ 1 μM (BRD2(2)): 93 % Ctrl
% Ctrl @ 1 μM (BRD1): 75 % Ctrl
% Ctrl @ 1 μM (TAF1(2)): 63 % Ctrl
% Ctrl @ 1 μM (GCN5L2): 77 % Ctrl
% Ctrl @ 1 μM (PBRM1(2)): 79 % Ctrl
% Ctrl @ 1 μM (BAZ^2B): 75 % Ctrl
% Ctrl @ 1 μM (SMARCA4): 57 % Ctrl
% Ctrl @ 1 μM (EP300): 88 % Ctrl
% Ctrl @ 1 μM (TAF1L(2)): 80 % Ctrl
% Ctrl @ 1 μM (BRDT(1)): 90 % Ctrl
% Ctrl @ 1 μM (ATAD2A): 94 % Ctrl
% Ctrl @ 1 μM (ATAD2B): 81 % Ctrl
BRD7 degradation (immunoblot) (BRD7 [2]): not able to induce degradation of BRD7 at any of the concentrations
bromodomain interaction profile [3]: exclusive interaction with BRD9; also recorded: exclusively interacts with BRD9
efficacy on viability [4]: comparable efficacy
% Ctrl @ 1 μM (TRIM33 (PHD, Bromo.)): 100 % Ctrl
